Molecules are shown by their SMILES. Bounds are passed on as bounds.

For the first test, the system named is Giardia intestinalis. Kind of test: Antimicrobial activity against Giardia lamblia GS/M assessed as reduction in trophozoites formation. Type of test: functional, organism-based. Particulars: Giardia duodenalis.
As to `Cc1ncc([N+](=O)[O-])n1CCO` [METRONIDAZOLE], the EC50 was 5.2 µM.

The subject of another test is Giardia intestinalis. Kind of test: Antimicrobial activity against Giardia lamblia assemblage A WB C6 ATCC 30957 trophozoites. Type of test: functional, organism-based. Particulars: Giardia duodenalis.
The molecule `COc1ccc(Cn2cc(C#Cc3cn(C[C@H]4O[C@@H](n5ccc(=O)n(Cc6ccc(OC)cc6)c5=O)[C@@H]5OC(C)(C)O[C@@H]54)nn3)c(=O)n(Cc3ccc(OC)cc3)c2=O)cc1` gave an IC50 of 36 µM.
The same measure, in the same setting: as for `O=c1ccn([C@@H]2O[C@H](Cn3cc(C#Cc4c[nH]c(=O)[nH]c4=O)nn3)[C@@H](O)[C@H]2O)c(=O)[nH]1`, the figure is 36 µM; as for `O=c1ccn([C@@H]2O[C@H](Cn3cc(C#CC#Cc4cn(C[C@H]5O[C@@H](n6ccc(=O)[nH]c6=O)[C@H](O)[C@@H]5O)nn4)nn3)[C@@H](O)[C@H]2O)c(=O)[nH]1`, 47 µM.
The same measure, in the same setting: as for `CC1(C)O[C@@H]2[C@H](O1)[C@@H](Cn1cc(CCCCc3cn(C[C@H]4O[C@@H](n5ccc(=O)[nH]c5=O)[C@@H]5OC(C)(C)O[C@@H]54)nn3)nn1)O[C@H]2n1ccc(=O)[nH]c1=O`, the figure is 47 µM; as for `CC1(C)O[C@@H]2[C@H](O1)[C@@H](Cn1cc(C#Cc3c[nH]c(=O)[nH]c3=O)nn1)O[C@H]2n1ccc(=O)[nH]c1=O`, 5 µM.

The subject of the next test is Giardia intestinalis. Kind of test: Antimicrobial activity against Giardia lamblia assemblage A WB C6 ATCC 30957 cyst. The format is functional, organism-based. As to conditions: Giardia duodenalis.
Regarding `COc1ccc(Cn2cc(C#Cc3cn(C[C@H]4O[C@@H](n5ccc(=O)n(Cc6ccc(OC)cc6)c5=O)[C@@H]5OC(C)(C)O[C@@H]54)nn3)c(=O)n(Cc3ccc(OC)cc3)c2=O)cc1`, the IC50 worked out at 5 µM.
On the same count and under the same terms, in the case of `O=c1ccn([C@@H]2O[C@H](Cn3cc(C#Cc4c[nH]c(=O)[nH]c4=O)nn3)[C@@H](O)[C@H]2O)c(=O)[nH]1` it was 20 µM.
For the molecule `O=c1ccn([C@@H]2O[C@H](Cn3cc(C#CC#Cc4cn(C[C@H]5O[C@@H](n6ccc(=O)[nH]c6=O)[C@H](O)[C@@H]5O)nn4)nn3)[C@@H](O)[C@H]2O)c(=O)[nH]1`, the IC50 was > 50 µM.
As for `CC1(C)O[C@@H]2[C@H](O1)[C@@H](Cn1cc(CCCCc3cn(C[C@H]4O[C@@H](n5ccc(=O)[nH]c5=O)[C@@H]5OC(C)(C)O[C@@H]54)nn3)nn1)O[C@H]2n1ccc(=O)[nH]c1=O`, the IC50 was > 50 µM.
For the molecule `CC1(C)O[C@@H]2[C@H](O1)[C@@H](Cn1cc(C#Cc3c[nH]c(=O)[nH]c3=O)nn1)O[C@H]2n1ccc(=O)[nH]c1=O`, the IC50 is > 50 µM.
